Assay results taken from patent US9630958B2, “Triazine compounds” (Sphaera Pharma Pte. Ltd., priority 2012, dated 2017).

What was measured:
Recombinant mTOR (FRAP1) = target: T1, Recombinant mTOR (FRAP1) (Homo sapiens, UniProt P42345); test: mTOR in vitro kinase assay (TR-FRET, phosphorylation of GFP-4E-BP1); assay type: biochemical; conditions: for inhibition at 1 µM: 1 uM compound, read-out: mTOR % Inhib@1 uM; for IC50: 8 μM ATP, 400 nM GFP-4E-BP1
T1 construct: purchased Invitrogen
Method: Compounds were evaluated for mTOR activity using an in vitro kinase assay.
mTOR activity is measured in vitro by determining the level of phosphorylation of the protein substrate 4EBP-1. The phosphorylation of GFP-4E-BP1 at threonine residue is recognized by Ab Tb-Anti-p4EBP1, which results in time resolved fluorescence energy transfer (TR-FRET) between GFP and Terbium in the Ab-Protein complex.
Recombinant mTOR (FRAP1), Kinase reaction buffer, GFP-4E-BP1 and LanthaScreen Tb-anti-4E-BP1 (pThr46), TR FRET dilution buffer, Kinase Quench Buffer were obtained from Invitrogen.
Kinase reactions were performed in 10 μl volume in Corning white 384 well plates. […] The reaction was initiated by the addition of substrate (GFP-4E-BP1) and ATP at a final conc. of 400 nM and 8 μM ATP in the reaction respectively. The kinase reaction was allowed to proceed for 1 hour at room temperature before a 10 μL preparation of kinase quench buffer and Tb-labeled Antibody in TR-FRET dilution buffer was added. The final concentration of the antibody in the assay well is 2 nM and the final concentration of EDTA is 10 mM. The plate was incubated at room temperature for 1 h.
(§1) FRET signal was read in Envision Multilabel Reader with the following filters:
Excitation-330 nm and Emission 486 nm (donor) and 520 nm (acceptor).
TR FRET Ratio (Fluorescence 520 nm/Fluorescence 486 nm) was plotted against the concentration of inhibitor and data was fit to Non Linear Regression curve fit (sigmoidal dose response curve with variable slope-four parameters) using Graph Pad Prism 5.

[1] = target: T2, PI3 Kinase alpha (p110 alpha/p85 alpha) (Homo sapiens, UniProt P42336); test: PI3K TR-FRET assay (Transcreener ADP2); assay type: biochemical; conditions: for IC50: PI3K alpha, 1 μM ATP, 50 μM PIP2; for inhibition at 1 µM: 1 uM compound, read-out: PI3K % Inhib@1 uM
T2 construct: purchased Invitrogen
Method: Enzymatic activity of PI3K alpha was measured using Time resolved Fluorescence resonance energy transfer (TR-FRET) assay. This assay utilizes ADP detection as a means to screen inhibitor potency of compounds. The Transcreener ADP2 TR-FRET Red Assay is a competitive immunoassay for ADP with a far-red, TR-FRET readout and it has been used for this purpose. The assay can be used for any enzyme class that produces ADP (Kinases, ATPases). It consists of ADP HiLyte647 Tracer, ADP^2 Antibody-Tb conjugate (800 nM), stop & detect buffer, 5 mM ATP, 5 mM ADP. The ADP HiLyte647 Tracer is bound to an ADP^2 Antibody-Tb conjugate. The excitation of the terbium complex in the UV range results in energy transfer to the tracer and emission at a higher wavelength after a time delay ADP produced by the target enzyme displaces the tracer which causes decrease in TR-FRET.
The reaction buffer used for the assay was 50 mM HEPES, pH 7.4.3 mM MgCl2, 0.05% CHAPS, 50 mM NaCl, 2 mM DTT, 1 mM EGTA. PI3 Kinase alpha (p110 alpha/p85 alpha) and PIP2 Substrate (diC8,) were procured from Invitrogen and Echelon respectively.
Kinase reactions were performed in 10 μl volume in Corning white 384 well plates. […] Reaction was initiated by the addition of substrate (PIP2) and ATP at final conc. of 50 μM and 1 μM ATP in the reaction respectively. Kinase reactions were allowed to proceed for 1 hour at room temperature before a 10 μL preparation of Transcreener ADP detection mix was added. Plate was incubated at room temperature for 1 hr. ADP-ATP standard curves were also prepared.
as §1
Excitation-330 nm and Emission 615 nm (donor) and 665 nm (acceptor). TR FRET Ratio (Fluorescence 665 nm/Fluorescence 615 nm) was converted to amount of product formed using the standard curve generated. Percentage inhibition was calculated and plotted against the concentration of inhibitor and data was fit to Non Linear Regression curve fit (sigmoidal dose response curve with variable slope-four parameters) using Graph pad prism 5 and IC50 was calculated for the compound.

T2 sequence (P42336 whole entry): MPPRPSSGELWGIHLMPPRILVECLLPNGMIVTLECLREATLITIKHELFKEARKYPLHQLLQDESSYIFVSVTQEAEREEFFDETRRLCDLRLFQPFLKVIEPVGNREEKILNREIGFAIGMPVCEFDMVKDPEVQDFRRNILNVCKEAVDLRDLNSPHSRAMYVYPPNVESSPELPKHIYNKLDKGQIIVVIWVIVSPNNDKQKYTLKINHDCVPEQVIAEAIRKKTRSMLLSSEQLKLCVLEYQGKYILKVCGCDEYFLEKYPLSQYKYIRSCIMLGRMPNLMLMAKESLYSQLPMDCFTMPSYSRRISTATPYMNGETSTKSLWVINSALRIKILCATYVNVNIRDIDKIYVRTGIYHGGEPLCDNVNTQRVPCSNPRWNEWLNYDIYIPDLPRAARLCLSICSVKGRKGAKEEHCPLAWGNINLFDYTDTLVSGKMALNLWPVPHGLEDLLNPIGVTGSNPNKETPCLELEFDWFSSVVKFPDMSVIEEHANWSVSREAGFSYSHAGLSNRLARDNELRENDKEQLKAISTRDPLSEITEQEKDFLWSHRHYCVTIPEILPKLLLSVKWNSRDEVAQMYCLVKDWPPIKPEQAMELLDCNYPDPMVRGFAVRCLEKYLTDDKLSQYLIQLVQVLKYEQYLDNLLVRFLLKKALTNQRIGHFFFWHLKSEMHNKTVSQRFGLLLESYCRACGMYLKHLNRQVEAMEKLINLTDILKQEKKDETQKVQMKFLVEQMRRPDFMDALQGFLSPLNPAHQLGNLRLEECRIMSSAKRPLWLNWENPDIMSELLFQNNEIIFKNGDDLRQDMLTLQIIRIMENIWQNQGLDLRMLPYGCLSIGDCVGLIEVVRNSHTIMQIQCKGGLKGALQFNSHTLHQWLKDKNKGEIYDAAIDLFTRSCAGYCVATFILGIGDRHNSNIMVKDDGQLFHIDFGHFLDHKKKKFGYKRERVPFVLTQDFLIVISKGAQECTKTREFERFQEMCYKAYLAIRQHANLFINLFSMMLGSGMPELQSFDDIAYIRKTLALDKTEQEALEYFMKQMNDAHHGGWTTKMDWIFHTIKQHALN
T2 sequence (P27986 whole entry partner): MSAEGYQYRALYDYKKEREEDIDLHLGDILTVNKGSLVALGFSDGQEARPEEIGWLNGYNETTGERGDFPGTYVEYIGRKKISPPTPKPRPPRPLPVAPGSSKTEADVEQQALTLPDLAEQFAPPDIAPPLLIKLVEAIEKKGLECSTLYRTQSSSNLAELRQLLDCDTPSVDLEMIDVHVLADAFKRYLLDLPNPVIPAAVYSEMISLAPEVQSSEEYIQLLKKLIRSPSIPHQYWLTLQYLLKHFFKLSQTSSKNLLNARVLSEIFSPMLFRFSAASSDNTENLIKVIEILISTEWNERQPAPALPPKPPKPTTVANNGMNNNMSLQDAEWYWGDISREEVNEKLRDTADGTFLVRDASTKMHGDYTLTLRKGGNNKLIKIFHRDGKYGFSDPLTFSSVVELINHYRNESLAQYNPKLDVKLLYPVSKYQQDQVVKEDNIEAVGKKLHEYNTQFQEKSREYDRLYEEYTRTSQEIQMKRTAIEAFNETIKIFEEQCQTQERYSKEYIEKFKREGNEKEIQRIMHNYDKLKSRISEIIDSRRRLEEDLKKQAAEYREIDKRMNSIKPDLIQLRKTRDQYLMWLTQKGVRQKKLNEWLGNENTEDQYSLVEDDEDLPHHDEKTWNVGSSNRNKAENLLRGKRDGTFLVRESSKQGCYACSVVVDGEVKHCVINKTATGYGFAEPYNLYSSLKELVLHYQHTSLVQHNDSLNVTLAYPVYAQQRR
T1 sequence (P42345 1360-2549 limits assumed): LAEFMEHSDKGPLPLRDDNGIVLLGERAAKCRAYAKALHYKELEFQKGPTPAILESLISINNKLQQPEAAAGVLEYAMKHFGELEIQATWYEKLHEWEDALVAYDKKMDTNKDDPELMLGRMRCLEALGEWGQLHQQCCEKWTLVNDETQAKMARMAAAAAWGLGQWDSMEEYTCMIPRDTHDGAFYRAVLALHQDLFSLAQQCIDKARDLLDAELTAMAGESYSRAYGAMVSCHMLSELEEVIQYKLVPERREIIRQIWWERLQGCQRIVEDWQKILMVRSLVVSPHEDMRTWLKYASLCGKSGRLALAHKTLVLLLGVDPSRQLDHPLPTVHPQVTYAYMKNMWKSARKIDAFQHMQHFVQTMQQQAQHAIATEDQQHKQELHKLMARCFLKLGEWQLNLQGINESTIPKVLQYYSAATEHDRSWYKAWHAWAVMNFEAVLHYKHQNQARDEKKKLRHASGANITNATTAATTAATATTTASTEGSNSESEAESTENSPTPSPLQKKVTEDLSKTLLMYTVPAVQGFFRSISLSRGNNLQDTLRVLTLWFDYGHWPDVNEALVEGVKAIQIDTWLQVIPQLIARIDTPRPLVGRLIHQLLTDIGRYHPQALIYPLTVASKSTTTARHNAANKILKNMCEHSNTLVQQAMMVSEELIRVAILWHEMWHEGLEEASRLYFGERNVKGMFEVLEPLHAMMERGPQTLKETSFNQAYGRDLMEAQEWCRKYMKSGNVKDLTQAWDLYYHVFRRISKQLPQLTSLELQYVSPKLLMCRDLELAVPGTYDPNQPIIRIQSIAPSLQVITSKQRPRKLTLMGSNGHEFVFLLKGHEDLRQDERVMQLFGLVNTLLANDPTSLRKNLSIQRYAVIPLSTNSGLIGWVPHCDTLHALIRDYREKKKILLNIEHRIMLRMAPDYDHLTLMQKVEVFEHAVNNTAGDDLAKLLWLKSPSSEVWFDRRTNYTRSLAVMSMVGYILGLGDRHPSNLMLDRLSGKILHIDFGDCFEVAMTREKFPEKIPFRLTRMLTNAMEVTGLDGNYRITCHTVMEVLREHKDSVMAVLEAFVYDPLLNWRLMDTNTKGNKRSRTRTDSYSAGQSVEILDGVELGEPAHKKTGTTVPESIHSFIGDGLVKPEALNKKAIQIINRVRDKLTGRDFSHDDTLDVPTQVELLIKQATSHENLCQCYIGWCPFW

| SMILES | inhibition at 1 µM (Recombinant mTOR (FRAP1)) [%] | IC50 (Recombinant mTOR (FRAP1)) [nM] | IC50 [1] [nM] | inhibition at 1 µM [1] [%] |
| --- | --- | --- | --- | --- |
| CN(C)C(=O)N1CCC(Oc2nc(-c3ccc(N)nc3)nc(N3CCOCC3)n2)CC1 [Compound 10021, 4-(4-(6-aminopyridin-3-yl)-6-morpholino-1,3,5-triazin-2-yloxy)-N,N-dimethylpiperidine-1-carboxamide] | > 50 | < 1000 | < 1000 |  |
| CN(C)C(=O)c1ccc(Oc2nc(-c3cnc(N)s3)nc(N3CCOCC3)n2)c(F)c1 [Compound 10022, 4-(4-(2-aminothiazol-5-yl)-6-morpholino-1,3,5-triazin-2-yloxy)-3-fluoro-N,N-dimethylbenzamide] | > 50 | < 1000 | < 1000 |  |
| CN(C)C(=O)c1ccc(Oc2nc(-c3cnc(N)s3)nc(N3CCOc4ccccc43)n2)cc1 [Compound 10029, 4-(4-(2-aminothiazol-5-yl)-6-(2H-benzo[b][1,4]oxazin-4(3H)-yl)-1,3,5-triazin-2-yloxy)-N,N-dimethylbenzamide] | > 50 | < 1000 | > 1000 | < 50 |
| CN(C)C(=O)c1ccc(Oc2nc(-c3cnc(N)s3)nc(N3C[C@H]4C[C@@H](C3)O4)n2)cc1 [Compound 10046, 4-(4-(2-aminothiazol-5-yl)-6-((1R,5S)-6-oxa-3-azabicyclo[3.1.1]heptan-3-yl)-1,3,5-triazin-2-yloxy)-N,N-dimethylbenzamide] | < 50 |  |  | < 50 |
| CN(C)C(=O)[C@H]1CC[C@H](Oc2nc(-c3ccc(N)nc3)nc(N3CCOCC3)n2)CC1 [Compound 10049, (1r,4r)-4-(4-(6-aminopyridin-3-yl)-6-morpholino-1,3,5-triazin-2-yloxy)-N,N-dimethylcyclohexanecarboxamide] | > 50 | < 1000 | < 1000 |  |
| CN(C)C(=O)c1ccc(Oc2nc(-c3ccc(N)nc3)nc(N3[C@@H]4CC[C@H]3COC4)n2)cc1 [Compound 10050, 4-(4-(6-aminopyridin-3-yl)-6-((1R,5S)-3-oxa-8-azabicyclo[3.2.1]octan-8-yl)-1,3,5-triazin-2-yloxy)-N,N-dimethylbenzamide] | > 50 | < 1000 | > 1000 |  |
| C[C@H]1COCCN1c1nc(Oc2ccc(C(=O)N(C)C)cc2F)nc(-c2ccc3[nH]ncc3c2)n1 [Compound 10051, (S)-4-((4-(1H-indazol-5-yl)-6-(3-methylmorpholino)-1,3,5-triazin-2-yl)oxy)-3-fluoro-N,N-dimethylbenzamide] | > 50 | < 1000 | > 1000 |  |
| C[C@H]1OCCN(c2nc(Oc3ccc(C(=O)N(C)C)cc3F)nc(-c3cnc(N)s3)n2)[C@H]1C [Compound 10052, 4-((4-(2-Aminothiazol-5-yl)-6-((2R,3S)-2,3-dimethylmorpholino)-1,3,5-triazin-2-yl)oxy)-3-fluoro-N,N-dimethylbenzamide] |  | < 1000 | < 1000 | > 50 |
| C[C@@H]1OCCN(c2nc(Oc3ccc(C(=O)N(C)C)cc3F)nc(-c3cnc(N)s3)n2)[C@H]1C [Compound 10053, 4-((4-(2-Aminothiazol-5-yl)-6-((2S,3S)-2,3-dimethylmorpholino)-1,3,5-triazin-2-yl)oxy)-3-fluoro-N,N-dimethylbenzamide] |  | < 1000 | > 1000 |  |
| C[C@@H]1CN(c2nc(Oc3ccc(C(=O)N(C)C)cc3F)nc(-c3cnc(N)s3)n2)[C@@H](C)CO1 [Compound 10057, 4-((4-(2-Aminothiazol-5-yl)-6-((2R,5S)-2,5-dimethylmorpholino)-1,3,5-triazin-2-yl)oxy)-3-fluoro-N,N-dimethylbenzamide] |  | < 1000 |  | < 50 |
| C[C@H]1COCCN1c1nc(Oc2ccc(C(=O)N(C)C)cc2F)nc(-c2ccc(N)nc2)n1 [Compound 10058, (S)-4-((4-(6-Aminopyridin-3-yl)-6-(3-methylmorpholino)-1,3,5-triazin-2-yl)oxy)-3-fluoro-N,N-dimethylbenzamide] |  | < 1000 | < 1000 |  |
| C[C@H]1CN(c2nc(Oc3ccc(C(=O)N(C)C)cc3F)nc(-c3ccc4[nH]ncc4c3)n2)[C@@H](C)CO1 [Compound 10063, 4-((4-((25,3S)-2,5-dimethylmorpholino)-6-(1H-indazol-5-yl)-1,3,5-triazin-2-yl)oxy)-3-fluoro-N,N-dimethylbenzamide] |  | < 1000 |  | < 50 |
| C[C@@H]1CN(c2nc(Oc3ccc(C(=O)N(C)C)cc3F)nc(-c3ccc4[nH]ncc4c3)n2)[C@@H](C)CO1 [Compound 10064, 4-((4-((2R,3S)-2,5-dimethylmorpholino)-6-(1H-indazol-5-yl)-1,3,5-triazin-2-yl)oxy)3-fluoro-N,N-dimethylbenzamide] |  | < 1000 |  | < 50 |
| CN(C)C(=O)c1ccc(Oc2nc(-c3cnc(N)cc3C(F)(F)F)nc(N3CCOCC3)n2)c(F)c1 [Compound 10065, 4-((4-(6-Amino-4-(trifluoromethyl)pyridine-3-yl)-6-morpholino-1,3,5-triazin-2-yl)oxy)-3-fluoro-N,N-dimethylbenzamide] |  | < 1000 | < 1000 |  |
| C[C@H]1COCCN1c1nc(Oc2ccc(C(=O)N(C)C)cc2)nc(-c2cnc(N)cc2C(F)(F)F)n1 [Compound 10066, (S)-4-((4-(6-Amino-4-(trifluoromethyl)pyridine-3-yl)-6-(3-methylmorpholino)-1,3,5-triazin-2-yl)oxy)-N,N-dimethylbenzamide] |  | < 1000 | < 1000 |  |
| C[C@H]1COCCN1c1nc(Oc2ccc(C(=O)N(C)C)cc2F)nc(-c2cnc(N)cc2C(F)(F)F)n1 [Compound 10067, (S)-4-((4-(6-Amino-4-(trifluoromethyl)pyridine-3-yl)-6-(3-methylmorpholino)-1,3,5-triazin-2-yl)oxy)-3-fluoro-N,N-dimethylbenzamide] |  | < 1000 | < 1000 |  |
| C[C@@H]1CN(c2nc(Oc3ccc(C(=O)N(C)C)cc3F)nc(-c3cnc(N)s3)n2)C[C@H](C)O1 [Compound 10069] |  | < 1000 | > 1000 |  |
| CN(C)C(=O)c1ccc(Oc2nc(-c3cnc(N)s3)nc(N3CCNC(=O)CC3)n2)cc1 [Compound 10071, 4-((4-(2-Aminothiazol-5-yl)-6-(5-oxo-1,4-diazepan-1-yl)-1,3,5-triazin-2-yl)oxy)-N,N-dimethylbenzamide] | < 50 |  |  | < 50 |
| CN(C)C(=O)c1ccc(Oc2nc(-c3cnc(N)s3)nc(N3CCNC(=O)C3)n2)cc1 [Compound 10072, 4-((4-(2-Aminothiazol-5-yl)-6-(3-oxopiperazin-1-yl)-1,3,5-triazin-2-yl)oxy)-N,N-dimethylbenzamide] | < 50 |  |  | < 50 |
| C[C@@H]1CN(c2nc(Oc3ccc(C(=O)N(C)C)cc3)nc(-c3cnc(N)s3)n2)CCO1 [Compound 10073, (R)-4-((4-(2-Aminothiazol-5-yl)-6-(2-methylmorpholino)-1,3,5-triazin-2-yl)oxy)-N,N-dimethylbenzamide] | > 50 | < 1000 | < 1000 | > 50 |
| CN(C)C(=O)c1ccc(Oc2nc(-c3cnc(N)s3)nc(N3CC4CCC(C3)O4)n2)cc1 [Compound 10075, 4-((4-(2-Aminothiazol-5-yl)-6-(8-oxa-3-azabicyclo[3.2.1]octan-3-yl)-1,3,5-triazin-2-yl)oxy)-N,N-dimethylbenzamide] | > 50 | < 1000 | > 1000 | < 50 |
